Key:
MET = MET biochemical kinase assay; design: species or system human; concentration or dose not given beside the values
How it was run: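 Colorimetric signal from an HRP-linked anti-phosphotyrosine antibody with TMB measures phosphate incorporated into immobilised MET. The receptor is pulled from lysates by a polyclonal antibody against its cytoplasmic domain, then reacts in ATP- and metal-containing buffer with test compound.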

FLK-1 receptor = target: T1, FLK-1 receptor (Mus musculus, UniProt P35918); experiment: FLK-1 ELISA (kinase activity of the FLK-1 receptor in FLK-1/NIH3T3 cells, VEGF stimulated); type: cell-based; design: concentration or dose not given beside the values
T1 construct: expressed in transfected cells; host or cells: NIH3T3 C7#3
T1 sequence (P35918 20-1345): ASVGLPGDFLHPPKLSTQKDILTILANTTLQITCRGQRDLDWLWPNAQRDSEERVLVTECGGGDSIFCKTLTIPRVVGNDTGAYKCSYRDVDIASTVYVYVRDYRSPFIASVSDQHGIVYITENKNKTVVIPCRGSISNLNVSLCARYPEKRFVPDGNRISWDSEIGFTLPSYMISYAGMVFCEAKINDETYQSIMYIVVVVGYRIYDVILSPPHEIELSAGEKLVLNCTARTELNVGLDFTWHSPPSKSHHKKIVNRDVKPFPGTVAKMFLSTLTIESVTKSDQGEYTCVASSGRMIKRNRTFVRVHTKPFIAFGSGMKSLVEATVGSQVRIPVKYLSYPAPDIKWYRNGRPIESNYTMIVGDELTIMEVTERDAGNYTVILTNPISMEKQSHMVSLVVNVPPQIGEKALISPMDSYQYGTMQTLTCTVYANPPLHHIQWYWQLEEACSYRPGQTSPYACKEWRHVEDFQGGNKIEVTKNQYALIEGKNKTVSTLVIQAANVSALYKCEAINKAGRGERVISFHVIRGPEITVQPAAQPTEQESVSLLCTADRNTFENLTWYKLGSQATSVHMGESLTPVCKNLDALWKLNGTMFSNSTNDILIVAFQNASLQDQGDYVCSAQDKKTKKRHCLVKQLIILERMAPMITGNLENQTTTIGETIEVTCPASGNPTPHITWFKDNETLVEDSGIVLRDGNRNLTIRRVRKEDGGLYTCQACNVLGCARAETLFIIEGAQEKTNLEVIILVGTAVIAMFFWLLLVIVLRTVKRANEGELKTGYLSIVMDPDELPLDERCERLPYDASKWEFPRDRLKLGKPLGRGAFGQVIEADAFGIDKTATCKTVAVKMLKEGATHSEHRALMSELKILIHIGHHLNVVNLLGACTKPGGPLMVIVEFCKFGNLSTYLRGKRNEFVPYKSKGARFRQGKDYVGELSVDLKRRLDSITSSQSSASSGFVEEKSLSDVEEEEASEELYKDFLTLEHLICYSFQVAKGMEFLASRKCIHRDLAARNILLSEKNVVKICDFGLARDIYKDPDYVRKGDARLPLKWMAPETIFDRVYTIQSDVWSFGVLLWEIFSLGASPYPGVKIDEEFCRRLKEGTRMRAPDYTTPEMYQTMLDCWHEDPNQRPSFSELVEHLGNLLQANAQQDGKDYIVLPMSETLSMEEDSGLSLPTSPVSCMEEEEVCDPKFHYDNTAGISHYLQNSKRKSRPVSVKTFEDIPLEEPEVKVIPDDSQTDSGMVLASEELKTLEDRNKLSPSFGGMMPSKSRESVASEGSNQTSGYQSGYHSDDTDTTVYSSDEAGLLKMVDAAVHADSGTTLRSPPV
How it was run: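 FLK-1-expressing NIH3T3 C7#3 cells, starved overnight in 0.1% FBS medium, were treated with compounds at a 1:200 final dilution (0.5% DMSO) for 2 h at 37 °C, with VEGF stimulation. FLK-1 kinase activity was read by ELISA on anti-rabbit IgG plates using affinity-purified anti-FLK-1 antiserum.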

PDGF-R = PDGF-R (Homo sapiens, UniProt P09619); experiment: PDGF-R ELISA; type: cell-based
Chain of PDGF-R (P09619 33-1106, species assumed): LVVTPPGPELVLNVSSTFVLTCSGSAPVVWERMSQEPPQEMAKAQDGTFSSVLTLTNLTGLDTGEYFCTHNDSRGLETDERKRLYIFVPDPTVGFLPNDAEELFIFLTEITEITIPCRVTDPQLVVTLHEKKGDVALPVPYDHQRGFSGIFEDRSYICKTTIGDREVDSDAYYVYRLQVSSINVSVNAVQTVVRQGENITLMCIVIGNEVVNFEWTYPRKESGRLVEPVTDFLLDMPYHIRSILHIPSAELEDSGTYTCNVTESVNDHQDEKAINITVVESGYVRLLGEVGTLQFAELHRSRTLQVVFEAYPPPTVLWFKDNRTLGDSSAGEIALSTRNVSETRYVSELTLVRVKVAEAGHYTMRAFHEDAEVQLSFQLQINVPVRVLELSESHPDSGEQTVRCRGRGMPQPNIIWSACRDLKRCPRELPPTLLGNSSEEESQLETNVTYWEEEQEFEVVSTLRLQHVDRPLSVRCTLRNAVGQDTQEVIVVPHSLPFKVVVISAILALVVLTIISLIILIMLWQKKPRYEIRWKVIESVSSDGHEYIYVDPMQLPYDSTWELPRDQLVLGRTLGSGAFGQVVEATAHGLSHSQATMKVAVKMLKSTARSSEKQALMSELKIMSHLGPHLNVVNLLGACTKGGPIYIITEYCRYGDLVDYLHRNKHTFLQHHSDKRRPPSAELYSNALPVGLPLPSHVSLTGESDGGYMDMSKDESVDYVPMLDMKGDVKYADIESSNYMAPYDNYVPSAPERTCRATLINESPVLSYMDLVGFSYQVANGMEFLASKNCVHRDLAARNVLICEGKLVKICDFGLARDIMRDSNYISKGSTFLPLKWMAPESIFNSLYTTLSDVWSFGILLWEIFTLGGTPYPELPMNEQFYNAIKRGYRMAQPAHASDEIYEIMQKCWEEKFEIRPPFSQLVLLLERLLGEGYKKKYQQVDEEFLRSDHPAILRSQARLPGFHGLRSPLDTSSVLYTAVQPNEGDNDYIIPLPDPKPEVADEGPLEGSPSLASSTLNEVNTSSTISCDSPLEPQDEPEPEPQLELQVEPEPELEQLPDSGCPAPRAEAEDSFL
Text: A PDGF-R ELISA is described in International Patent Publication No. WO 96/40116, published December 19, 1996 by Tang et al.

Row | Compound | Met Kinase % Inhibition (MET) | Fik Kinase %Inhibition (FLK-1 receptor) | PDGF Kinase %Inhibition (PDGF-R)
1 | COc1ccc(C=C2C(=O)Nc3ccc(CCCl)cc32)cc1 [10726/G11] | 11.8% | 9.1% | -7.7%
2 | O=C1Nc2ccc(CCCl)cc2C1=Cc1c[nH]c2ccccc12 [10717/G06] | 34.0% | 4.3% | –
3 | CCOC(=O)c1[nH]c(C=C2C(=O)Nc3ccc(CCCl)cc32)c(C(=O)OC)c1C [10726/G03] | 26.8% | 11.3% | 4.3%
4 | O=C1Nc2ccc(S(=O)(=O)Nc3ccc(C(F)(F)F)cc3)cc2C1=Cc1ccc(Br)o1 [10726/E05] | 71.0% | 8.1% | 4.3%
5 | O=C1Nc2c(Br)cc(Br)cc2C1=Cc1c[nH]c2ccccc12 [10717/A06] | 31.7% | -10.8% | –
6 | Cc1cc(C=C2C(=O)Nc3ccc(S(=O)(=O)N4CCOCC4)cc32)cc(C(C)(C)C)c1O [10726/F04] | 93.5% | 31.5% | 18.3%
7 | COc1cccc(O)c1C=C1C(=O)Nc2ccc(CCCl)cc21 [10717/G10] | 30.9% | 4.8% | –
8 | COc1cccc(C=C2C(=O)Nc3ccc(Br)c(C)c32)c1OC [10727/C11] | 14.5% | -25.6% | 22.4%
9 | Cc1cn(C)cc1C=C1C(=O)Nc2ccc(S(=O)(=O)Nc3ccc(C(F)(F)F)cc3)cc21 [10726/E06] | -7.4% | 6.2% | 41.7%
10 | CNS(=O)(=O)c1ccc2c(c1)C(=Cc1ccc(OC)cc1)C(=O)N2 [10726/D11] | 9.6% | 10.5% | 30.9%
11 | O=C1Nc2ccc(I)cc2C1=Cc1coc2ccccc2c1=O [10727/B07] | 83.5% | 8.4% | 0.6%
12 | O=C1Nc2ccccc2C1=C1C(=O)Nc2ccc(S(=O)(=O)Nc3ccc(C(F)(F)F)cc3)cc21 [10726/E09] | 50.3% | 9.9% | 34.7%
13 | O=C1Nc2ccc(F)cc2C1=C1C(=O)Nc2ccc(S(=O)(=O)Nc3ccc(C(F)(F)F)cc3)cc21 [10726/E08] | 58.9% | 4.1% | 34.1%
14 | Cc1cc(C=C2C(=O)Nc3ccc(S(=O)(=O)Nc4ccc(C(F)(F)F)cc4)cc32)cc(C(C)(C)C)c1O [10726/E04] | 85.5% | 8.1% | 12.6%
15 | CCN(CC)c1ccc(C=C2C(=O)Nc3ccc(I)cc32)cc1 [10727/B02] | 90.5% | 2.4% | -10.3%
16 | CNS(=O)(=O)c1ccc2c(c1)C(=Cc1cn(C)cc1C)C(=O)N2 [10726/D06] | 42.8% | 16.3% | 28.4%
17 | N#Cc1ccc(C=C2C(=O)Nc3c(Br)cc(Br)cc32)cc1 [10727/A09] | 44.2% | -16.8% | 16.6%

Row | Compound | Met Kinase % Inhibition (MET) | Fik Kinase %Inhibition (FLK-1 receptor) | PDGF Kinase %Inhibition (PDGF-R)
18 | Cc1ccc(C=C2C(=O)Nc3ccc(CCCl)cc32)s1 [10717/G07] | 7.5% | -17.0% | –
19 | Cc1c(Br)ccc2c1C(=Cc1ccc(C#N)cc1)C(=O)N2 [10727/C09] | 37.9% | -13.5% | 21.7%
20 | Cc1c(Br)ccc2c1C(=Cc1cc(Cl)cc(Br)c1O)C(=O)N2 [10727/C04] | 81.7% | 0.2% | 23.2%
21 | O=C1Nc2ccc(I)cc2C1=Cc1ccccc1Sc1ccc(Cl)cc1 [10727/B05] | 83.3% | 10.5% | 9.4%
22 | O=C1Nc2ccc(I)cc2C1=Cc1cc(Cl)cc(Br)c1O [10727/B04] | 87.1% | 46.0% | 21.0%
23 | Cc1cn(C)cc1C=C1C(=O)Nc2ccc(S(=O)(=O)N3CCOCC3)cc21 [10726/F06] | 16.2% | 17.7% | 17.0%
24 | N#Cc1ccc(C=C2C(=O)Nc3ccc(I)cc32)cc1 [10727/B09] | 81.9% | 6.7% | 18.1%
25 | O=C1Nc2c(Br)cc(Br)cc2C1=Cc1coc2ccccc2c1=O [10727/A07] | 61.1% | -10.7% | 12.3%
26 | CCc1cc(CC)c(C=C2C(=O)Nc3ccc(I)cc32)[nH]1 [10727/B03] | 84.5% | -13.4% | -7.4%
27 | CCc1ccc(C=C2C(=O)Nc3ccc(Br)c(C)c32)s1 [10726/C10] | 36.7% | 5.5% | 16.4%
28 | CCOC(=O)c1[nH]c(C=C2C(=O)Nc3ccc(S(=O)(=O)NC)cc32)c(C(=O)OC)c1C [10726/D03] | 52.1% | 21.6% | 21.4%
29 | O=C1Nc2ccc(F)cc2C1=C1C(=O)Nc2ccc(CCCl)cc21 [10726/G08] | 39.1% | 2.9% | 14.5%
30 | O=C1Nc2ccc(CCCl)cc2C1=Cc1ccc[nH]1 [10717/G09] | 19.1% | -29.7% | –
31 | Cn1cccc1C=C1C(=O)Nc2ccc(CCCl)cc21 [10717/G04] | 10.9% | 0.8% | –
32 | O=C1Nc2ccc(CCCl)cc2C1=Cc1ccc(Br)cc1 [10717/G08] | 10.9% | 1.9% | –
33 | O=C1Nc2ccc(CCCl)cc2C1=Cc1ccc(F)cc1 [10717/G05] | 4.7% | 5.3% | –

— EP1247803A2, “Indolinone compounds suitable for modulation of protein kinases” (Sugen, Inc., priority 1996, dated 1998)
